Test results reported in patent US10125126B2, “N-cycloalkyl-N-[(heterocyclylphenyl)methylene]-(thio)carboxamide derivatives” (BAYER CROPSCIENCE AG, priority 2012, dated 2018).

What was measured:
Uromyces appendiculatus = assay: In vivo preventive test on Uromyces appendiculatus (bean rust); conditions: bean plants, 11 days after contamination
Method in brief: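 Saxa bean plants at 2-leaf stage, grown at 24° C., sprayed preventively with compound; 24 h later inoculated with U. appendiculatus spores (150 000 spores per mL). Percent efficacy graded 11 days after inoculation versus solvent-treated controls.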

Septoria tritici = assay: In vivo preventive test on Septoria tritici (wheat); conditions: wheat plants, 24 days after contamination
Method in brief: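 Scipion wheat grown at 22° C, sprayed at 1-leaf stage (10 cm); controls received acetone/tween/DMSO/water without active. Inoculated 24 h later with S. tritici spores (500 000/mL), held 72 h at 18° C, 100% RH, then 21 days at 90% RH. % efficacy vs controls scored 24 days post-inoculation.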

Alternaria brassicae = assay: In vivo preventive test on Alternaria brassicae (leaf spot on radish); conditions: 500 ppm of active ingredient; radish plants; 6 days after contamination
Procedure: In Vivo Preventive Test on Alternaria brassicae (Leaf Spot on Radish) […] Radish plants (“Pernod Clair” variety), sown in starter cups on a 50/50 peat soil pozzolana substrate and grown at 17° C., are treated at the cotyledon stage by spraying with the active ingredient prepared as described above. Plants, used as controls, are treated with the mixture of acetone/tween/DMSO/water not containing the active material. After 24 hours, the plants are contaminated by spraying the cotyledons with an aqueous suspension of Alternaria brassicae spores (50 000 spores per mL). The spores are collected from a 15-day-old culture. The contaminated radish plants are incubated at 20° C. and at 100% relative humidity. Grading (% of efficacy) is carried out 6 days after the contamination, in comparison with the control plants.

[1] = log P by HPLC on a reversed-phase column (C 18), EEC Directive 79/831 Annex V.A8; format: physicochemical; conditions: HPLC on reversed-phase column (C 18), 40° C., 0.1% aqueous formic acid and acetonitrile, linear gradient 10% to 90% acetonitrile
Method in brief: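 40° C; 0.1% aq. formic acid/acetonitrile, linear gradient 10→90% acetonitrile. Calibration: unbranched alkan-2-ones (C3–C16), known log P. log P from retention time, linear interpolation between neighbouring alkanones. lambda-max from UV 200–400 nm at peak maxima.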

Sphaerotheca fuliginea = assay: In vivo preventive test on Sphaerotheca fuliginea (powdery mildew on cucurbits); conditions: gherkin plants, 12 days after contamination
Method in brief: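 Gherkin plants ("Vert petit de Paris") grown at 24 °C were sprayed at cotyledon stage Z11; controls received acetone/tween/DMSO/water without active. Inoculation 24 h later by spraying cotyledons with 100 000 spores/mL. Efficacy (%) graded 12 days post-contamination versus controls.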

Pyrenophora teres = assay: In vivo preventive test on Pyrenophora teres (barley); conditions: barley plants, 14 days after contamination
Procedure: In Vivo Preventive Test on Pyrenophora teres (Barley) […] Barley plants (“Plaisant” variety), sown in starter cups on a 50/50 peat soil pozzolana substrate and grown at 22° C., are treated at the 1 leaf stage (10 cm height) by spraying with the active ingredient prepared as described above. Plants, used as controls, are treated with the mixture of acetone/tween/DMSO/water not containing the active material. After 24 hours, the plants are contaminated by spraying the leaves with an aqueous suspension of Pyrenophora teres spores (12 000 spores per mL). The spores are collected from a 12-day-old culture. […] Grading (% of efficacy) is carried out 14 days after the contamination, in comparison with the control plants.

Puccinia recondita = assay: In vivo preventive test on Puccinia recondita (brown rust on wheat); conditions: wheat plants, 12 days after contamination
Method in brief: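 Wheat plants ("Scipion") at 1-leaf stage, grown at 22° C, were sprayed with compound, then inoculated 24 h later with Puccinia recondita spores (100 000 spores per mL). Efficacy (%) graded 12 days after inoculation relative to solvent-treated controls.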

Botrytis cinerea = assay: In vivo preventive test on Botrytis cinerea (grey mould); conditions: gherkin plants, 4 to 5 days after contamination
Procedure: In Vivo Preventive Test on Botrytis cinerea (Grey Mould) […] Gherkin plants (“Vert petit de Paris” variety), sown in starter cups on a 50/50 peat soil pozzolana substrate and grown at 24° C., are treated at the Z11 cotyledon stage by spraying with the active ingredient prepared as described above. Plants, used as controls, are treated with the mixture of acetone/tween/DMSO/water not containing the active material. After 24 hours, the plants are contaminated by spraying the cotyledons with an aqueous suspension of cryopreserved Botrytis cinerea spores (50 000 spores per mL). The spores are suspended in a nutrient solution composed of 10 g/L of PDB, 50 g/L of D-Fructose, 2 g/L of NH4NO3 and 1 g/L of KH2PO4. The contaminated gherkin plants are incubated at 17° C. and at 90% relative humidity. Grading (% of efficacy) is carried out 4 to 5 days after the contamination, in comparison with the control plants.

SMILES | Efficacy (Uromyces appendiculatus; 500 ppm of active ingredient) [%] | Efficacy (Septoria tritici; 500 ppm of active ingredient) [%] | Efficacy (Alternaria brassicae) [%] | logP [1] | Efficacy (Sphaerotheca fuliginea; 500 ppm of active ingredient) [%] | Efficacy (Pyrenophora teres; 500 ppm of active ingredient) [%] | Efficacy (Puccinia recondita; 500 ppm of active ingredient) [%] | Efficacy (Botrytis cinerea; 500 ppm of active ingredient) [%] | Efficacy (Uromyces appendiculatus; 100 ppm of active ingredient) [%] | Efficacy (Pyrenophora teres; 100 ppm of active ingredient) [%] | Efficacy (Septoria tritici; 100 ppm of active ingredient) [%] | Efficacy (Sphaerotheca fuliginea; 100 ppm of active ingredient) [%] | Efficacy (Puccinia recondita; 100 ppm of active ingredient) [%] | Efficacy (Botrytis cinerea; 100 ppm of active ingredient) [%]
Cn1cc(C(=O)N(Cc2ccccc2-c2ccc(Cl)s2)C2CC2)c(C(F)F)n1 [I.140] | 73 | 96 | 90 | 3.87 |  |  |  |  |  |  |  |  |  | 
Cn1cc(C(=O)N(Cc2ccccc2-c2cccs2)C2CC2)c(C(F)F)n1 [I.72] | 83 | 80 | 70 | 3.25 | 90 |  |  |  |  |  |  |  |  | 
Cn1nc(C(F)F)c(C(=O)N(Cc2cc(Cl)ccc2-c2coc3ccccc23)C2CC2)c1F [I.130] | 85 | 93 | 96 | 4.44 | 100 | 79 | 81 |  |  |  |  |  |  | 
Cn1nc(C(F)F)c(C(=O)N(Cc2cc(Cl)ccc2-c2cccs2)C2CC2)c1F [I.68] | 100 | 83 | 71 | 4.11 | 94 |  | 94 |  |  |  |  |  |  | 
Cc1csc(-c2ccc(Cl)cc2CN(C(=O)c2c(C(F)F)nn(C)c2F)C2CC2)c1 [I.103] | 94 | 95 |  | 4.51 | 100 | 95 | 95 | 98 |  |  |  |  |  | 
Cn1nc(C(F)F)c(C(=O)N(Cc2ccccc2-c2ccsc2Cl)C2CC2)c1F [I.138] | 100 | 100 |  | 3.92 | 100 | 79 | 94 | 100 |  |  |  |  |  | 
Cn1nc(C(F)F)c(C(=S)N(Cc2ccccc2-c2ccsc2)C2CC2)c1F [I.73] | 100 |  |  | 4.21 | 100 | 71 | 100 | 100 |  |  |  |  |  | 
Cn1cc(-c2ccccc2CN(C(=O)c2c(C(F)F)nn(C)c2F)C2CC2)cn1 [I.54] | 97 | 100 | 83 | 2.34 | 95 |  | 80 | 97 |  |  |  |  |  | 
Cn1nc(C(F)F)c(C(=O)N(Cc2cc(F)ccc2C2(C)CO2)C2CC2)c1F (stereo not drawn) [I.7] |  |  |  | 2.86 |  |  |  |  | 100 | 97 | 100 | 94 | 100 | 
Cn1nc(C(F)F)c(C(=S)N(Cc2cc(Cl)ccc2-c2cccs2)C2CC2)c1F [I.74] | 100 |  | 83 | 4.69 | 100 |  | 94 | 100 |  |  |  |  |  | 
Cn1nc(C(F)F)c(C(=O)N(Cc2ccccc2-c2ccsc2)C2CC2)c1F [I.67] | 100 | 97 |  | 3.55 | 100 | 79 | 100 |  |  |  |  |  |  | 
Cn1nc(C(F)F)c(C(=O)N(Cc2cc(Cl)ccc2-c2ccsc2Cl)C2CC2)c1F [I.137] |  | 97 | 70 | 4.41 | 100 | 79 | 88 |  |  |  |  |  |  | 
Cn1nc(C(F)F)c(C(=O)N(Cc2cc(-c3ccc(Cl)s3)ccc2Cl)C2CC2)c1F [I.143] |  | 100 |  | 4.83 | 100 | 79 | 88 | 98 | 93 |  |  |  |  | 
Cn1nc(C(F)F)c(C(=O)N(Cc2ccc(Cl)cc2-c2csc3ccccc23)C2CC2)c1F [I.159] | 84 | 88 |  | 4.92 | 100 |  |  | 100 |  | 75 |  |  |  | 
CC1CC1N(Cc1ccccc1-c1ccsc1)C(=O)c1c(C(F)F)nn(C)c1F (stereo not drawn) [I.86] | 97 | 79 |  | 3.83 | 98 | 79 | 98 |  |  |  |  |  |  | 
Cn1nc(C(F)F)c(C(=O)N(Cc2cc(F)ccc2-c2csc3ccccc23)C2CC2)c1F [I.154] |  | 96 | 75 | 4.39 | 98 | 71 | 75 |  |  |  |  |  |  | 
Cc1cscc1-c1ccc(F)cc1CN(C(=O)c1c(C(F)F)nn(C)c1F)C1CC1 [I.102] | 100 | 95 | 83 | 3.94 | 100 |  | 100 | 94 |  |  |  |  |  | 
Cn1nc(C(F)F)c(C(=O)N(Cc2cc(-c3ccco3)ccc2Cl)C2CC2)c1F [I.34] |  |  |  | 3.81 |  |  |  |  |  | 81 |  |  |  | 99
Cn1nc(C(F)F)c(C(=O)N(Cc2cc(Cl)ccc2-c2ccoc2)C2CC2)c1F [I.28] | 99 | 97 | 96 | 3.64 |  | 79 | 94 |  |  |  |  |  |  | 
